Values belong to the compound of their own block, whether it stands above or below them.
What was measured:
Format in all cases: in vivo
Abutilon theophrasti [1] = assay: Post-emergence herbicidal action; conditions: Abutilon theophrasti, 504 h, application rate 5 g/ha, read-out: Abutilon theophrasti (efficacy in %)
Summary of the method: (§1)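 Plants grown from seed in sandy loam in the greenhouse were sprayed at the one-leaf stage, 2 to 3 weeks after sowing, with WP or EC formulations in water plus 0.5% additive at 20 g/ha or less. Activity was rated visually after about 3 weeks against untreated controls (100% = plants died, 0% = like control).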

Setaria viridis [2] = assay: Post-emergence herbicidal action; conditions: 504 h, application rate 5 g/ha, read-out: Setaria viridis (efficacy in %)
Summary of the method: as §1

Matricaria inodora [3] = assay: Post-emergence herbicidal action; conditions: Tripleurospermum inodorum, 504 h, application rate 5 g/ha, read-out: Matricaria inodora (efficacy in %)
Summary of the method: as §1

Polygonum convolvulus [4] = assay: Post-emergence herbicidal action; conditions: Fallopia convolvulus, 504 h, application rate 5 g/ha, read-out: Polygonum convolvulus (efficacy in %)
Summary of the method: as §1

Pharbitis purpurea [5] = assay: Post-emergence herbicidal action; conditions: Ipomoea purpurea, 504 h, application rate 5 g/ha, read-out: Pharbitis purpurea (efficacy in %)
Summary of the method: as §1

Veronica persica [6] = assay: Post-emergence herbicidal action; conditions: Veronica persica, 504 h, application rate 5 g/ha, read-out: Veronica persica (efficacy in %)
Summary of the method: as §1

Brassica napus [7] = assay: Post-emergence crop plant compatibility
Summary of the method: (§2)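 Values are visual % effects about 3 weeks after treatment, relative to untreated plants (0% = like control, 100% = plant death). Crops sown in sandy loam under greenhouse conditions were treated post-emergence at the one-leaf stage (2–3 weeks). Compounds were applied as WP or EC sprays with 0.5% additive at […] water.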

Triticum aestivum [8] = assay: Post-emergence crop plant compatibility
Summary of the method: as §2

Oryza sativa = assay: Post-emergence crop plant compatibility; conditions: application rate 5 g/ha
Summary of the method: as §2

Brassica napus [9] = assay: Pre-emergence crop plant compatibility; conditions: application rate 20 g/ha
From the text: (§3) Seeds of monocotyledonous and dicotyledonous weed plants and crop plants were placed in plastic or organic planting pots and covered with soil. The compounds of the invention, formulated in the form of wettable powders (WP) or as emulsion concentrates (EC), were then applied to the surface of the covering soil as aqueous suspension or emulsion with addition of 0.5% additive at a water application rate equivalent to […] (converted). After the treatment, the pots were placed in a greenhouse and kept under good growth conditions for the test plants. After about 3 weeks, the effect of the preparations was scored visually in comparison with untreated controls as percentages. For example, 100% activity=the plants have died, 0% activity=like control plants.
(§4) Here, the observed effects on selected crop plants are stated in comparison to the untreated controls (values in %).

Zea mays [10] = assay: Pre-emergence crop plant compatibility
From the text: as §3, §4

Triticum aestivum [11] = assay: Pre-emergence crop plant compatibility; conditions: application rate 20 g/ha
From the text: as §3, §4

Glycine max [12] = assay: Pre-emergence crop plant compatibility; conditions: application rate 80 g/ha
From the text: as §3, §4

Echinochloa crus-galli = assay: Pre-emergence herbicidal action; conditions: application rate 80 g/ha, scored after about 3 weeks
From the text: as §3
(§5) Tables B1 to B11 below show the effects of selected compounds of the general formula (I) according to Tables I.1 to I.34 on various harmful plants and at an application rate corresponding to 80 g/ha and less, which were obtained by the experimental procedure mentioned above.

Digitaria sanguinalis = assay: Pre-emergence herbicidal action; conditions: application rate 80 g/ha, scored after about 3 weeks
From the text: as §3, §5

Abutilon theophrasti [13] = assay: Pre-emergence herbicidal action; conditions: application rate 80 g/ha, scored after about 3 weeks
From the text: as §3, §5

Setaria viridis [14] = assay: Pre-emergence herbicidal action; conditions: application rate 80 g/ha, scored after about 3 weeks
From the text: as §3, §5

Matricaria inodora [15] = assay: Pre-emergence herbicidal action; conditions: application rate 80 g/ha, scored after about 3 weeks
From the text: as §3, §5

Polygonum convolvulus [16] = assay: Pre-emergence herbicidal action; conditions: scored after about 3 weeks
From the text: as §3, §5

Pharbitis purpurea [17] = assay: Pre-emergence herbicidal action; conditions: application rate 80 g/ha, scored after about 3 weeks
From the text: as §3, §5

Viola tricolor = assay: Pre-emergence herbicidal action; conditions: application rate 20 g/ha, scored after about 3 weeks
From the text: as §3, §5

Veronica persica [18] = assay: Pre-emergence herbicidal action; conditions: scored after about 3 weeks
From the text: as §3, §5

Amaranthus retroflexus = assay: Pre-emergence herbicidal action; conditions: scored after about 3 weeks
From the text: as §3, §5

Alopecurus myosuroides = assay: Pre-emergence herbicidal action; conditions: application rate 80 g/ha
From the text: as §3, §5

Zea mays [19] = assay: Comparative post-emergence crop plant compatibility (with Mero and AMS)
From the text: (§6) Seeds of mono- or dicotyledonous weed plants were sown in pots (diameter 7 cm) with sandy loam soil, germinated under optimium growth conditions and cultivated for 21 days.
(§7) The compounds, formulated in the form of wettable powders (WP) or as emulsion concentrates (EC), were sprayed onto the green parts of the plants as aqueous suspension or emulsion with addition of 1.5 l/ha Mero and 2 kg/ha AMS at a water application rate of 300 l/ha (converted).
(§8) After the test plants had been kept in the greenhouse under optimum growth conditions for 21 days, the activity of the preparations was rated visually in comparison to untreated control plants.
(§9) For example, 100% action=the plants have died and
(§10) 0% action=like control plants.
(§11) Tables C4 and C5 below show the effects of a compound according to the invention (114-442) and a compound from WO2019/101551 (No. 16) on various crop plants and at an application rate corresponding to 6 g/ha and less, which were obtained by the experimental procedure mentioned above.

Glycine max [20] = assay: as above
From the text: as §6, §7, §8, §9, §10, §11

Solanum nigrum = assay: Comparative post-emergence herbicidal action (with Mero and AMS); conditions: with 1.5 l/ha Mero and 2 kg/ha AMS, rated after 21 days
From the text: as §6, §7, §8, §9, §10
(§12) Tables C1-C3 below show the effects of a compound according to the invention (I.14-442) and a structurally related compound from WO2019/101551 (No. 16) on various harmful plants and at an application rate corresponding to 18 g/ha and less, which were obtained by the experimental procedure mentioned above.

Xanthium strumarium = assay: as above; conditions: with 1.5 l/ha Mero and 2 kg/ha AMS, rated after 21 days
From the text: as §6, §7, §8, §9, §10, §12

Polygonum convolvulus [21] = assay: as above; conditions: with 1.5 l/ha Mero and 2 kg/ha AMS, rated after 21 days
From the text: as §6, §7, §8, §9, §10, §12

Brassica napus (efficacy in %) (Brassica napus [7]): 0%
Brassica napus (efficacy in %) (Brassica napus [7]; application rate 5 g/ha): 20%
Triticum aestivum (efficacy in %) (Triticum aestivum [8]; application rate 1.25 g/ha): 10%
Triticum aestivum (efficacy in %) (Triticum aestivum [8]; application rate 5 g/ha): 20%
Oryza sativa (efficacy in %) (Oryza sativa): 20%
Brassica napus (efficacy in %) (Brassica napus [9]): 0%
Zea mays (efficacy in %) (Zea mays [10]; application rate 20 g/ha): 0%
Zea mays (efficacy in %) (Zea mays [10]; application rate 80 g/ha): 20%
Triticum aestivum (efficacy in %) (Triticum aestivum [11]): 20%
Glycine max (efficacy in %) (Glycine max [12]): 0%
SMILES: CCOC(=O)CCOc1ncccc1Sc1cc(-n2c(=O)cc(C(F)(F)F)n(N)c2=O)c(F)cc1Cl [I.5-442, Ethyl 3-{[3-({5-[3-amino-2,6-dioxo-4-(trifluoromethyl)-3,6-dihydropyrimidin-1(2H)-yl]-2-chloro-4-fluorophenyl}sulfanyl)pyridin-2-yl]oxy}propanoate]
pest or weed control at 5 g/ha (Abutilon theophrasti [1]): 100%
pest or weed control at 5 g/ha (Setaria viridis [2]): 90%
pest or weed control at 5 g/ha (Matricaria inodora [3]): 80%
pest or weed control at 5 g/ha (Polygonum convolvulus [4]): 100%
pest or weed control at 5 g/ha (Pharbitis purpurea [5]): 100%
pest or weed control at 5 g/ha (Veronica persica [6]): 100%
Echinochloa crus-galli (efficacy in %) (Echinochloa crus-galli): 80%
Digitaria sanguinalis (efficacy in %) (Digitaria sanguinalis): 80%
Abutilon theophrasti (efficacy in %) (Abutilon theophrasti [13]): 100%
Setaria viridis (efficacy in %) (Setaria viridis [14]): 100%
Matricaria inodora (efficacy in %) (Matricaria inodora [15]): 90%
Polygonum convolvulus (efficacy in %) (Polygonum convolvulus [16]; application rate 20 g/ha): 100%
Polygonum convolvulus (efficacy in %) (Polygonum convolvulus [16]; application rate 80 g/ha): 100%
Pharbitis purpurea (efficacy in %) (Pharbitis purpurea [17]): 100%
Viola tricolor (efficacy in %) (Viola tricolor): 100%
Veronica persica (efficacy in %) (Veronica persica [18]; application rate 20 g/ha): 90%
Veronica persica (efficacy in %) (Veronica persica [18]; application rate 80 g/ha): 100%
Amaranthus retroflexus (efficacy in %) (Amaranthus retroflexus; application rate 20 g/ha): 100%
Amaranthus retroflexus (efficacy in %) (Amaranthus retroflexus; application rate 80 g/ha): 100%
Alopecurus myosuroides (efficacy in %) (Alopecurus myosuroides): 80%

Zea mays (efficacy in %) (Zea mays [19]; application rate 2 g/ha): 40%
Zea mays (efficacy in %) (Zea mays [19]; application rate 6 g/ha): 50%
Glycine max (efficacy in %) (Glycine max [20]; application rate 2 g/ha): 40%
Glycine max (efficacy in %) (Glycine max [20]; application rate 6 g/ha): 50%
SMILES: CCOC(=O)COc1ncccc1Oc1cc(-n2c(=O)c(C)c(C(F)(F)F)n(C)c2=O)c(F)cc1Cl [No. 16]
Solanum nigrum (efficacy in %) (Solanum nigrum; application rate 6 g/ha): 80%
Solanum nigrum (efficacy in %) (Solanum nigrum; application rate 18 g/ha): 80%
Xanthium strumarium (efficacy in %) (Xanthium strumarium; application rate 6 g/ha): 50%
Xanthium strumarium (efficacy in %) (Xanthium strumarium; application rate 18 g/ha): 85%
Polygonum convolvulus (efficacy in %) (Polygonum convolvulus [21]; application rate 6 g/ha): 65%
Polygonum convolvulus (efficacy in %) (Polygonum convolvulus [21]; application rate 18 g/ha): 75%

Source: patent US20220274954A1, “SUBSTITUTED N-PHENYL-N-AMINOUARCILS AND SALTS THEREOF AND USE THEREOF AS HERBICIDAL AGENTS” (Bayer Aktiengesellschaft, priority 2019, published 2022)
